Measured values reported in PMC8092912 (Antimicrobial Agents and Chemotherapy, 2021).
Where two headings read alike, the source gives them in different places.

Experiments:
[1] = tested on: HIV-1 G140S+Q148H; assay: Antiviral activity against G140S+Q148H HIV-1 in the MT-2 cell line; assay type: cell-based; conditions: for EC50: Human immunodeficiency virus 1, MT2; for Fold change of EC50, G140S+Q148H (reduced susceptibility): versus WT
[2] = target: T1, WT HIV-1 IN-DNA complexes (Human immunodeficiency virus type 1 group M subtype B, UniProt P04585); conditions: cited from earlier work
[3] = tested on: HIV-1 strain NL4.3 G140S+Q148H; assay: Drug washout, viral replication (RT activity in culture supernatant) of G140S+Q148H virus in MT-2 cells; assay type: cell-based; conditions: for G140S+Q148H viral replication under constant drug pressure: drug at 20 times IC90, no washout
Experimental: (§1) We then washed away the inhibitors 3 days postinfection and quantified the reverse transcriptase activity in the culture supernatant to evaluate viral growth as described on washout days 0, 4, and 8 ([10], [11]). […] Longer experiments would be required to further differentiate BIC and DTG in washout experiments using WT virus.
(§2) Replication was assessed by measuring RT activity in culture supernatant without and after drug washout. Bar graphs, mean ± SEM. Statistical significance of drug washout with drug control conditions were assessed by adjusted P value with Tukey’s test: *, <0.05; ***, <0.001; and ****, <0.0001. For the washout experiments, BIC and EVG were synthesized at Gilead Sciences, Inc., DTG was purchased from Toronto Research Chemicals (ON, Canada), and RAL was provided by Merck, Inc.
The G140S+Q148H mutations cause varied degrees of resistance to INSTIs.

[4] = tested on: HIV-1 WT; assay: Antiviral activity against WT HIV-1 in the MT-2 cell line; assay type: cell-based; conditions: Human immunodeficiency virus 1, MT2
Source text: TABLE 1 Structure and antiviral activity of INSTIs in the MT-2 cell line | column: Antiviral activity against HIV-1, EC50 (nM)^b (fold change) / WT

[5] = tested on: G140S+Q148H mutant HIV-1 IN-DNA complexes
Experimental: (§3) Data sets were analyzed using a single exponential decay equation as previously published for INSTIs ([3]).

[6] = target: T2, G140S+Q148H mutant HIV-1 IN-DNA complexes (Human immunodeficiency virus type 1 group M subtype B, UniProt P04585, G1287S/Q1295H); conditions: for Apparent t1/2, G140S+Q148H: 37°C, single exponential decay
Experimental: as §3

[7] = target: T1, WT HIV-1 IN-DNA complexes
Experimental: as §3

[8] = tested on: HIV-1 strain NL4.3 WT; assay: Drug washout, viral replication (RT activity in culture supernatant) of WT virus in MT-2 cells; assay type: cell-based; conditions: for Time WT viral replication remained inhibited after washout: drug at 20 times IC90, washout 3 days postinfection; for WT viral replication after washout: drug at 20 times IC90, 4 days after washout
Experimental: as §1, §2

[9] = target: T2, G140S+Q148H mutant HIV-1 IN-DNA complexes; conditions: values in square brackets; cited from earlier work

| SMILES | EC50 [1] | Fold change of EC50, G140S+Q148H (reduced susceptibility) [1] | G140S+Q148H viral replication under constant drug pressure [3] | EC50 [4] | Apparent t1/2, G140S+Q148H, fold change vs WT [5] | koff, G140S+Q148H, fold change vs WT [5] | Apparent t1/2, G140S+Q148H [6] | Apparent t1/2, WT ([7]; 37°C, single exponential decay) | koff, WT ([7]; 37°C, single exponential decay) | Time WT viral replication remained inhibited after washout [8] | Apparent t1/2, G140S+Q148H [9] | koff, G140S+Q148H [9] | WT viral replication after washout [8] | further results |
| --- | --- | --- | --- | --- | --- | --- | --- | --- | --- | --- | --- | --- | --- | --- |
| C[C@@H]1CCO[C@H]2Cn3cc(C(=O)NCc4ccc(F)cc4F)c(=O)c(O)c3C(=O)N12 [DTG, dolutegravir] | 6.5 ± 1.2 nM | 4.3 fold | low replication | 1.5 ± 0.2 nM | 51 fold | 0.02 fold | 1.9 ± 0.2 h | 96 ± 29 h | 2.2 ± 0.7 s^−1 (×10^−6) | at least 8 days | 3.3 h | 58 ± 8 s^−1 (×10^−6) |  | Apparent t1/2, WT ([2]; values in square brackets): 71 h; koff, WT ([2]; values in square brackets): 2.7 ± 0.4 s^−1 (×10^−6); G140S+Q148H viral replication after washout ([3]; drug at 20 times IC90, 4 and 8 days after washout): significant viral replication |
| Cc1nnc(C(=O)NC(C)(C)c2nc(C(=O)NCc3ccc(F)cc3)c(O)c(=O)n2C)o1 [RAL, raltegravir] | 2460 nM |  |  | 9.4 ± 1.4 nM |  |  |  |  |  |  | ND [0.2] h | ND [1,130] s^−1 (×10^−6) | detectable viral replication | Apparent t1/2, WT [2]: 10 ± 2 [8.8] h; koff, WT [2]: 21 ± 6 [22 ± 2]; Binding to G140S+Q148H IN-DNA complexes for determination of dissociation kinetics [6]: insufficient level of binding; koff, WT [7]: 21 ± 6 [22 ± 2]; Apparent t1/2, WT ([7]; recombinant enzyme): 10 ± 2 [8.8] h |
| O=C(NCc1ccc(F)cc1F)c1cn2c(c(O)c1=O)C(=O)N1[C@H]3CC[C@H](C3)O[C@@H]1C2 [Compound 1] | 4.5 ± 1.8 nM | 3.2 fold |  | 1.4 ± 0.5 nM | 32 fold | 0.03 fold | 4.8 ± 0.2 h | 155 ± 25 h | 1.3 ± 0.2 s^−1 (×10^−6) |  |  |  |  |  |
| COc1cc2c(cc1Cc1cccc(Cl)c1F)c(=O)c(C(=O)O)cn2[C@H](CO)C(C)C [EVG, elvitegravir] | 868 ± 138 nM |  |  | 2.1 ± 0.9 nM |  |  |  |  |  |  |  |  | detectable viral replication |  |
| O=C(NCc1c(F)cc(F)cc1F)c1cn2c(c(O)c1=O)C(=O)N1[C@H]3CC[C@H](C3)O[C@@H]1C2 [BIC, bictegravir] | 3.1 ± 0.8 nM |  | very low levels of replication | 1.5 ± 0.2 nM |  |  | 5.7 ± 0.4 h |  |  | at least 8 days |  |  |  | Suppression of the G140S+Q148H virus after washout ([3]; drug at 20 times IC90, after 8 days of washout): > 80% |
| O=C(NCc1c(F)cc(F)cc1F)c1cn2c(c(O)c1=O)C(=O)N1[C@@H]3CC[C@@H](C3)O[C@H]1C2 [Compound 2] | 11.1 ± 0.5 nM |  |  | 1.5 ± 0.5 nM |  |  | 1.7 ± 0.2 h |  |  |  |  |  |  |  |
